Measurements published in US9611269B2, “Azetidinyl phenyl, pyridyl or pyrazinyl carboxamide derivatives as JAK inhibitors” (Incyte Corporation, priority 2011, dated 2017).

Assays:
Assay type in all cases: biochemical
[1] = target: human JAK1 (a.a. 837-1142) catalytic domain (Homo sapiens, UniProt P23458); test: In vitro JAK kinase assay (HTRF, 1 mM ATP), JAK1; conditions: at 1 mM ATP;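 note: kinase activity followed as phosphorylation of a biotin-tagged peptide, detected by HTRF with Eu-labelled anti-phosphotyrosine antibody and SA-APC, after 1 h reaction at room temperature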
Description: (§1) The catalytic activity of JAK1, JAK2 or JAK3 was assayed by measuring the phosphorylation of a biotinylated peptide. The phosphorylated peptide was detected by homogenous time resolved fluorescence (HTRF). […] Reactions were carried out at room temperature for 1 hour and then stopped with 20 μL 45 mM EDTA, 300 nM SA-APC, 6 nM Eu-Py20 in assay buffer (Perkin Elmer, Boston, Mass.). Binding to the Europium labeled antibody took place for 40 minutes and HTRF signal was measured on a Fusion plate reader (Perkin Elmer, Boston, Mass.).

[2] = target: human JAK2 (a.a. 828-1132) catalytic domain (Homo sapiens (Human), UniProt O60674); test: In vitro JAK kinase assay (HTRF, 1 mM ATP), JAK2; conditions: at 1 mM ATP
Description: as §1

[3] = tested on: human JAK1 (a.a. 837-1142) catalytic domain; test: In vitro JAK kinase assay (HTRF, 1 mM ATP), JAK1; conditions: ratio of JAK2 IC50 to JAK1 IC50 at 1 mM ATP;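 note: kinase activity followed as phosphorylation of a biotin-tagged peptide, detected by HTRF with Eu-labelled anti-phosphotyrosine antibody and SA-APC, after 1 h reaction at room temperature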
Description: as §1

human JAK1 (a.a. 837-1142) catalytic domain (Homo sapiens, UniProt P23458), sequence (P23458 whole entry, looked up, the tested form may be a part): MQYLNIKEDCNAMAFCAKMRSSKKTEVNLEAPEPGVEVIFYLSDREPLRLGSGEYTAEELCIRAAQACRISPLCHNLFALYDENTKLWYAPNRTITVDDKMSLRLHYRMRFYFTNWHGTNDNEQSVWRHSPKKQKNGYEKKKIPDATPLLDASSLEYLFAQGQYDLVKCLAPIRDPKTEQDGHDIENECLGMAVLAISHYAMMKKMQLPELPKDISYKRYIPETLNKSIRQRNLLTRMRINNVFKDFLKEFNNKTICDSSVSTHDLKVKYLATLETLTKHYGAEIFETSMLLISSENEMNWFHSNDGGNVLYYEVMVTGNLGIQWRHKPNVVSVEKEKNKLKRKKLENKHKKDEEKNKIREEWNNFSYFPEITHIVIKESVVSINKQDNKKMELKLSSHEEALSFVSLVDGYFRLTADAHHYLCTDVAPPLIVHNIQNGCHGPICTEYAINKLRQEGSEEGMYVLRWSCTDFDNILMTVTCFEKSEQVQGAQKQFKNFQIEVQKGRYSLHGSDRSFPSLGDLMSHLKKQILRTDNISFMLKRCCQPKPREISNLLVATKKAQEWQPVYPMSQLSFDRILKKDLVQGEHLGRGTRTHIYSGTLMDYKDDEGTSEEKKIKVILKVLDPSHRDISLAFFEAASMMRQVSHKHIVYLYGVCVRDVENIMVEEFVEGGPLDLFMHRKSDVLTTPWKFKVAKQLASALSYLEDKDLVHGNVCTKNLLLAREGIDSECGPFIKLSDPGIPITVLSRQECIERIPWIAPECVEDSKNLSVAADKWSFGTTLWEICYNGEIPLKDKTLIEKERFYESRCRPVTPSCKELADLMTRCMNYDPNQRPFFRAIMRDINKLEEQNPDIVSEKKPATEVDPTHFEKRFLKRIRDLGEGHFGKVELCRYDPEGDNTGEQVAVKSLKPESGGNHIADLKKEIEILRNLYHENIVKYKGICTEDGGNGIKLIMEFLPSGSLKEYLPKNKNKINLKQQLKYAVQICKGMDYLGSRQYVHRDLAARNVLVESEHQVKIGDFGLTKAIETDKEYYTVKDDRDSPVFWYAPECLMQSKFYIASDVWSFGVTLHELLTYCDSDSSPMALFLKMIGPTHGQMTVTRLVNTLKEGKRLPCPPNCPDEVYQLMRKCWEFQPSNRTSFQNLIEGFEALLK
human JAK2 (a.a. 828-1132) catalytic domain, sequence (O60674 828-1132): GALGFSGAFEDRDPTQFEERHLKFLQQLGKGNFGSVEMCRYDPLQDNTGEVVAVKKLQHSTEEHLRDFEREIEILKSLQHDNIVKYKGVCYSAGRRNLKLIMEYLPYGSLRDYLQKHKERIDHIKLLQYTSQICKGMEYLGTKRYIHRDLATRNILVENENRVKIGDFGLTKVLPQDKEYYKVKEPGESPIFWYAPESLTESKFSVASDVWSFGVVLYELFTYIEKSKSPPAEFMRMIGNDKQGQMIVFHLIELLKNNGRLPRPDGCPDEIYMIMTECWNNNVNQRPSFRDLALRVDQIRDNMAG

Row | SMILES | IC50 [1] | IC50 [2] | JAK2/JAK1 [3]
1 | C[C@@H](NC(=O)c1ccc(N2CC(CC#N)(n3cc(-c4ncnc5[nH]ccc45)cn3)C2)cc1)C(F)(F)F [Example 23, 4-{3-(Cyanomethyl)-3-[4-(7H-pyrrolo[2,3-d]pyrimidin-4-yl)-1H-pyrazol-1-yl]azetidin-1-yl}-N-[(1R)-2,2,2-trifluoro-1-methylethyl]benzamide bis(trifluoroacetate)] | < 10 nM | – | –
2 | C[C@H](NC(=O)c1cc(F)c(N2CC(CC#N)(n3cc(-c4ncnc5[nH]ccc45)cn3)C2)cc1F)C(F)(F)F [Example 28, 4-{3-(Cyanomethyl)-3-[4-(7H-pyrrolo[2,3-d]pyrimidin-4-yl)-1H-pyrazol-1-yl]azetidin-1-yl}-2,5-difluoro-N-[(1S)-2,2,2-trifluoro-1-methylethyl]benzamide] | < 10 nM | ≤ 10 nM | A (A means greater than or equal to 10)
3 | CC(NC(=O)c1ccc(N2CC(CC#N)(n3cc(-c4ncnc5[nH]ccc45)cn3)C2)cc1)C(F)(F)F (stereo not drawn) [Example 26, 4-{3-(Cyanomethyl)-3-[4-(7H-pyrrolo[2,3-d]pyrimidin-4-yl)-1H-pyrazol-1-yl]azetidin-1-yl}-N-(2,2,2-trifluoro-1-methylethyl)benzamide] | < 10 nM | – | –
4 | C[C@@H](NC(=O)c1ccc(N2CC(CC#N)(n3cc(-c4ncnc5[nH]ccc45)cn3)C2)c(F)c1)C1CC1 [Example 4, 4-{3-(Cyanomethyl)-3-[4-(7H-pyrrolo[2,3-d]pyrimidin-4-yl)-1H-pyrazol-1-yl]azetidin-1-yl}-N-[(1R)-1-cyclopropylethyl]-3-fluorobenzamide] | < 10 nM | ≤ 10 nM | A (A means greater than or equal to 10)
5 | C[C@@H](NC(=O)c1cc(F)c(N2CC(CC#N)(n3cc(-c4ncnc5[nH]ccc45)cn3)C2)cc1F)C1CC1 [Example 21, 4-{3-(Cyanomethyl)-3-[4-(7H-pyrrolo[2,3-d]pyrimidin-4-yl)-1H-pyrazol-1-yl]azetidin-1-yl}-N-[(1R)-1-cyclopropylethyl]-2,5-difluorobenzamide] | < 10 nM | ≤ 10 nM | A (A means greater than or equal to 10)
6 | C[C@@H](NC(=O)c1ccc(N2CC(CC#N)(n3cc(-c4ncnc5[nH]ccc45)cn3)C2)c(F)c1)C(F)(F)F [Example 16, 4-{3-(Cyanomethyl)-3-[4-(7H-pyrrolo[2,3-d]pyrimidin-4-yl)-1H-pyrazol-1-yl]azetidin-1-yl}-3-fluoro-N-[(1R)-2,2,2-trifluoro-1-methylethyl]benzamide] | < 10 nM | ≤ 10 nM | A (A means greater than or equal to 10)
7 | CN(C(=O)c1ccc(N2CC(CC#N)(n3cc(-c4ncnc5[nH]ccc45)cn3)C2)c(F)c1)C1CC1 [Example 7, 4-{3-(Cyanomethyl)-3-[4-(7H-pyrrolo[2,3-d]pyrimidin-4-yl)-1H-pyrazol-1-yl]azetidin-1-yl}-N-cyclopropyl-3-fluoro-N-methylbenzamide] | < 10 nM | ≤ 10 nM | A (A means greater than or equal to 10)
8 | C[C@H](NC(=O)c1ccc(N2CC(CC#N)(n3cc(-c4ncnc5[nH]ccc45)cn3)C2)cc1)C(F)(F)F [Example 19, 4-{3-(Cyanomethyl)-3-[4-(7H-pyrrolo[2,3-d]pyrimidin-4-yl)-1H-pyrazol-1-yl]azetidin-1-yl}-N-[(1S)-2,2,2-trifluoro-1-methylethyl]benzamide bis(trifluoroacetate)] | < 10 nM | – | –

Next, values leading:

Row | IC50 [1] | IC50 [2] | JAK2/JAK1 [3] | SMILES
9 | < 10 nM | ≤ 10 nM | A (A means greater than or equal to 10) | CC(C)NC(=O)c1cc(F)c(N2CC(CC#N)(n3cc(-c4ncnc5[nH]ccc45)cn3)C2)cc1F [Example 6, 4-{3-(Cyanomethyl)-3-[4-(7H-pyrrolo[2,3-d]pyrimidin-4-yl)-1H-pyrazol-1-yl]azetidin-1-yl}-2,5-difluoro-N-isopropylbenzamide]
10 | < 10 nM | ≤ 10 nM | A (A means greater than or equal to 10) | C[C@H](NC(=O)c1ccc(N2CC(CC#N)(n3cc(-c4ncnc5[nH]ccc45)cn3)C2)c(F)c1)C1CC1 [Example 5, 4-{3-(Cyanomethyl)-3-[4-(7H-pyrrolo[2,3-d]pyrimidin-4-yl)-1H-pyrazol-1-yl]azetidin-1-yl}-N-[(1S)-1-cyclopropylethyl]-3-fluorobenzamide]
11 | < 10 nM | 10 to 40 nM | A (A means greater than or equal to 10) | C[C@@H](NC(=O)c1ccc(N2CC(CC#N)(n3cc(-c4ncnc5[nH]ccc45)cn3)C2)cc1F)C1CC1 [Example 39, 4-{3-(Cyanomethyl)-3-[4-(7H-pyrrolo[2,3-d]pyrimidin-4-yl)-1H-pyrazol-1-yl]azetidin-1-yl}-N-[(1R)-1-cyclopropylethyl]-2-fluorobenzamide]
12 | < 10 nM | 10 to 40 nM | A (A means greater than or equal to 10) | N#CCC1(n2cc(-c3ncnc4[nH]ccc34)cn2)CN(c2cnc(C(=O)NC3(C(F)(F)F)CC3)cn2)C1 [Example 33, 5-{3-(Cyanomethyl)-3-[4-(7H-pyrrolo[2,3-d]pyrimidin-4-yl)-1H-pyrazol-1-yl]azetidin-1-yl}-N-[1-(trifluoromethyl)cyclopropyl]pyrazine-2-carboxamide]
13 | < 10 nM | ≤ 10 nM | A (A means greater than or equal to 10) | N#CCC1(n2cc(-c3ncnc4[nH]ccc34)cn2)CN(c2ccc(C(=O)NC3(C(F)(F)F)CC3)nc2)C1 [Example 17, 5-{3-(Cyanomethyl)-3-[4-(7H-pyrrolo[2,3-d]pyrimidin-4-yl)-1H-pyrazol-1-yl]azetidin-1-yl}-N-[1-(trifluoromethyl)cyclopropyl]pyridine-2-carboxamide]
14 | < 10 nM | 10 to 40 nM | A (A means greater than or equal to 10) | C[C@H](NC(=O)c1cnc(N2CC(CC#N)(n3cc(-c4ccnc5[nH]ccc45)cn3)C2)cn1)C1CC1 [Example 41, 5-{3-(Cyanomethyl)-3-[4-(1H-pyrrolo[2,3-b]pyridin-4-yl)-1H-pyrazol-1-yl]azetidin-1-yl}-N-[(1S)-1-cyclopropylethyl]pyrazine-2-carboxamide]
15 | < 10 nM | ≤ 10 nM | A (A means greater than or equal to 10) | C[C@H](NC(=O)c1ccc(N2CC(CC#N)(n3cc(-c4ncnc5[nH]ccc45)cn3)C2)cn1)C1CC1 [Example 11, 5-{3-(Cyanomethyl)-3-[4-(7H-pyrrolo[2,3-d]pyrimidin-4-yl)-1H-pyrazol-1-yl]azetidin-1-yl}-N-[(1S)-1-cyclopropylethyl]pyridine-2-carboxamide]
16 | – | 10 to 40 nM | – | CC(C)NC(=O)c1cnc(N2CC(CC#N)(n3cc(-c4ncnc5[nH]ccc45)cn3)C2)cn1 [Example 18, 5-{3-(Cyanomethyl)-3-[4-(7H-pyrrolo[2,3-d]pyrimidin-4-yl)-1H-pyrazol-1-yl]azetidin-1-yl}-N-isopropylpyrazine-2-carboxamide]
17 | – | 10 to 40 nM | – | CC(C)NC(=O)c1cnc(N2CC(CC#N)(n3cc(-c4ccnc5[nH]ccc45)cn3)C2)cn1 [Example 34, 5-{3-(Cyanomethyl)-3-[4-(1H-pyrrolo[2,3-b]pyridin-4-yl)-1H-pyrazol-1-yl]azetidin-1-yl}-N-isopropylpyrazine-2-carboxamide]
18 | < 10 nM | – | – | CC(C)NC(=O)c1ccc(N2CC(CC#N)(n3cc(-c4ncnc5[nH]ccc45)cn3)C2)cc1F [Example 14, 4-{3-(Cyanomethyl)-3-[4-(7H-pyrrolo[2,3-d]pyrimidin-4-yl)-1H-pyrazol-1-yl]azetidin-1-yl}-2-fluoro-N-isopropylbenzamide]
